Test: Volatility of clomazone from spray solution: glass tube at 25° C. with air suction, loss determined by GC
Type: physicochemical
Details: 24 h; for reduction of volatility of Clomazone by compound (B): Test experiment 5, clomazone WP 100 g/ha, component B 335 g/ha
Protocol: However, a preferred method for determining the volatility of the compounds contained in the compositions according to the present invention is carried out as follows: Glass tubes (internal diameter 23 mm) are immersed in a water bath at 25° C. In the bottom of each of the glass tubes 100 μl of spray solution (component A and B diluted in water at the concentration that a farmer would typically spray) are applied with a pipette. A tube is inserted in the glass tube. The ending of the inserted tube stays 25 mm above the bottom of the glass tube (i.e. the test sample). Along the inserted tube, the air contained in each individual glass tube is constantly suctioned at 250 L/h for the whole system. All glass tubes are separated from the lid by spacers which ensure the inlet of fresh air to the glass tubes. After short time the test sample is evaporated. The system is stopped according to a defined sampling period, preferably after 24 hours. The glass tubes are taken out and washed with THF. The washing solution is analyzed by GC for the compound of interest, e.g. clomazone. The loss of compound is calculated in % of the total amount of compound applied in the initial 100 μl sample. The reference test samples for the quantification of the initial applied Clomazone contain also THF. Each value is generated from 3 to 4 independent measurements. This method allows determining the relative volatility of a certain compound depending on the additional compounds present in a certain composition.
Non-encapsulated Clomazone (as WP formulation) was prepared at 100 g/ha with 200 L water/ha. Paraffinic oil, rapeseed oil methyl ester and the aromatic solvent were added at 335 g/ha, while Dimethenamid was added at 500 g/ha. For the solvents, an appropriate emulsifier system was added. The sample size was 100 μl. The volatility test was carried out at 25° C. and the operating time was 24 h.
Solvents typically used in crop protection agents were tested for comparative purposes. As comparison dimethenamid (dimethenamid P) was also tested, but differently from example 1, the test sample solution was prepared at 335 g/ha.CE3 was included again. Two controls were included in the experiment. For the solvents, an appropriate emulsifier system was added. The volatility test was carried out at 25° C., the operating time was 24 h. The sample size was 100 μl.
Various fatty acid amides were tested as additional components in herbicidal compositions with respect to the question if volatility of clomazone in such compositions is affected. For the solvents, an appropriate emulsifier system was added. The volatility test was carried out at 25° C. the operating time was 24 h. The sample size was 100 μl. […]

Row | Structure (SMILES) | reduction of volatility of Clomazone by compound (B) | effect on volatility of clomazone in the composition (Test experiment 1, clomazone WP 100 g/ha, dimethenamid 500 g/ha, solvents 335 g/ha) | effect on volatility of clomazone in herbicidal compositions (Test experiment 2, clomazone 100 g/ha, dimethenamid or solvent 335 g/ha)
1 | CCc1cccc(C)c1N(C(=O)CCl)C(C)COC (racemic) [Metolachlor, (RS)-2-ethyl-6-methyl-N-(1′-methyl-2′-methoxyethyl)-chloracetanilid] | support the claimed reduction of volatility of Clomazone |  | 
2 | COCC(C)N(C(=O)CCl)c1c(C)csc1C (stereo not shown) [Dimethenamid, R,S-2-Chloro-N-(2,4-dimethyl-3-thienyl)-N-(2-methoxy-1-methylethyl)acetamide] |  | significantly reduces the volatility of clomazone | significantly reduce the volatility of clomazone
3 | CCC(CC)Nc1c([N+](=O)[O-])cc(C)c(C)c1[N+](=O)[O-] [Pendimethalin, N-(1-ethylpropyl)-3,4-dimethyl-2,6-dinitrophenylamine] | support the claimed reduction of volatility of Clomazone |  | 

From patent publication US20170127677A1, “Formulation of clomazone having reduced volatility” (BASF SE, priority 2014, published 2017)
